Test results reported in ChEMBL document CHEMBL1773061, “Chiral sulfoxides as metabolites of 2-thioimidazole-based p38α mitogen-activated protein kinase inhibitors: enantioselective synthesis and biological evaluation” (J Med Chem, 2011).

Legend:
Assay type in all cases: tissue-based
[1] = biological target: T1, Mitogen-activated protein kinase 14 (Homo sapiens, UniProt Q16539); assay: Inhibition of p38 alpha MAPK in human whole blood assessed as phosphorylation of ATF-2 by immunosorbent non-radioactive enzyme assay
T1 sequence (Q16539 whole entry): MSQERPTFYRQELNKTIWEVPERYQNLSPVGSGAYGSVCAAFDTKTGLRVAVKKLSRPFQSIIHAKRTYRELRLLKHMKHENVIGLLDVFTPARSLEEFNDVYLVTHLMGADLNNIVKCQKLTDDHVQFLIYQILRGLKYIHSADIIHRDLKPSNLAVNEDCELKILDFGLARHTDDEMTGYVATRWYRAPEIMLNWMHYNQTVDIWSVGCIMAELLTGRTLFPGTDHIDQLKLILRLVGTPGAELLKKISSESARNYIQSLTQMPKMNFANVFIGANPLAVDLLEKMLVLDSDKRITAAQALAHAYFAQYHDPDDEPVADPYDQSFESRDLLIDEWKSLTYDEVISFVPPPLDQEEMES

[2] = biological target: T1, Mitogen-activated protein kinase 14; assay: Inhibition of p38 alpha MAPK in human whole blood assessed as suppression of LPS-induced TNF-alpha release by immunosorbent non-radioactive enzyme assay relative to SB203580
[3] = biological target: T1, Mitogen-activated protein kinase 14; assay: Inhibition of p38 alpha MAPK in human whole blood assessed as suppression of LPS-induced TNF-alpha release by immunosorbent non-radioactive enzyme assay
[4] = biological target: T1, Mitogen-activated protein kinase 14; assay: Inhibition of p38 alpha MAPK in human whole blood assessed as phosphorylation of ATF-2 by immunosorbent non-radioactive enzyme assay relative to SB203580

Row | SMILES | IC50 [1] | Ratio IC50 [2] | IC50 [3] | Ratio IC50 [4]
1 | CSc1nc(-c2ccc(F)cc2)c(-c2ccnc(N[C@H](C)C(C)C)c2)[nH]1 | 0.04 µM | 8.67 | 0.18 µM | 1.8
2 | CC(C)[S@@+]([O-])c1nc(-c2ccc(F)cc2)c(-c2ccnc(NC3CCCCC3)c2)[nH]1 | 0.011 µM | 7.64 | 0.25 µM | 3.09
3 | CC(C)Nc1cc(-c2nc([S@+]([O-])C(C)C)[nH]c2-c2ccc(F)cc2)ccn1 | 0.004 µM |  | 0.45 µM | 
4 | C[S@@+]([O-])c1nc(-c2ccnc(NC3CCOCC3)c2)c(-c2ccc(F)cc2)[nH]1 | 0.011 µM |  | 0.79 µM | 
5 | CC(C)[S@+]([O-])c1nc(-c2ccnc(NC3CCCCC3)c2)c(-c2ccc(F)cc2)[nH]1 | 0.021 µM |  | 0.34 µM | 
6 | CSc1nc(-c2ccc(F)cc2)c(-c2ccnc(NC(=O)Cc3ccc(F)cc3)c2)[nH]1 |  | 0.66 |  | 3.44
7 | C[C@@H](Nc1cc(-c2nc([S@@+](C)[O-])[nH]c2-c2ccc(F)cc2)ccn1)c1ccccc1 | 0.168 µM |  |  | 
8 | C[S@@+]([O-])c1nc(-c2ccc(F)cc2)c(-c2ccnc(NC3CCCCC3)c2)[nH]1 | 0.029 µM | 3.09 | 0.55 µM | 2.55
9 | CSc1nc(-c2ccc(F)cc2)c(-c2ccnc(NC(C)C)c2)[nH]1 | 0.002 µM | 12 | 0.13 µM | 18
10 | CSc1nc(-c2ccc(F)cc2)c(-c2ccnc(NC(C)=O)c2)n1C | 0.188 µM |  |  | 0.28
11 | CSc1nc(-c2ccnc(NC3CCCCC3)c2)c(-c2ccc(F)cc2)[nH]1 | 0.027 µM |  | 0.17 µM | 
12 | C[S@+]([O-])c1nc(-c2ccc(F)cc2)c(-c2ccnc(NC3CCCCC3)c2)[nH]1 |  | 2.08 |  | 1.48
13 | CC(C)[S@+]([O-])c1nc(-c2ccc(F)cc2)c(-c2ccnc(NC3CCCCC3)c2)[nH]1 |  | 5.62 |  | 1.62
14 | CSc1nc(-c2ccc(F)cc2)c(-c2ccnc(NC3CCCCC3)c2)[nH]1 |  | 7.24 |  | 2.89
15 | CC(C)Nc1cc(-c2nc([S@@+]([O-])C(C)C)[nH]c2-c2ccc(F)cc2)ccn1 | 0.006 µM |  | 0.61 µM | 
16 | C[C@H](Nc1cc(-c2nc([S@+](C)[O-])[nH]c2-c2ccc(F)cc2)ccn1)c1ccccc1 | 0.045 µM |  | 5.52 µM | 
17 | C[C@H](Nc1cc(-c2[nH]c([S+](C)[O-])nc2-c2ccc(F)cc2)ccn1)c1ccccc1 (mixture of isomers) | 0.095 µM | 0.25 | 6.28 µM | 0.53
18 | CSc1nc(-c2ccnc(NC(=O)Cc3ccc(F)cc3)c2)c(-c2ccc(F)cc2)[nH]1 |  |  | 2.98 µM | 
19 | C[C@H](Nc1cc(-c2[nH]c([S@+](C)[O-])nc2-c2ccc(F)cc2)ccn1)c1ccccc1 |  | 0.28 |  | 0.62

Row | SMILES | IC50 [1] | Ratio IC50 [2] | IC50 [3] | Ratio IC50 [4]
20 | C[S+]([O-])c1nc(-c2ccc(F)cc2)c(-c2ccnc(NC3CCOCC3)c2)[nH]1 (racemic) | 0.012 µM | 3.62 | 0.34 µM | 4.67
21 | CC(C)Sc1nc(-c2ccnc(NC3CCCCC3)c2)c(-c2ccc(F)cc2)[nH]1 | 0.012 µM |  | 0.65 µM | 
22 | CSc1nc(-c2ccc(F)cc2)c(-c2ccnc(NC3CCOCC3)c2)[nH]1 |  | 10.7 |  | 9.8
23 | C[S+]([O-])c1nc(-c2ccc(F)cc2)c(-c2ccnc(NC3CCCCC3)c2)[nH]1 (racemic) | 0.034 µM | 1.98 | 0.62 µM | 1.68
24 | CC(C)Nc1cc(-c2[nH]c(SC(C)C)nc2-c2ccc(F)cc2)ccn1 | 0.004 µM | 19.4 | 0.12 µM | 3.75
25 | CC(C)Nc1cc(-c2[nH]c([S@@+]([O-])C(C)C)nc2-c2ccc(F)cc2)ccn1 |  | 3.13 |  | 6.17
26 | C[C@@H](Nc1cc(-c2[nH]c([S+](C)[O-])nc2-c2ccc(F)cc2)ccn1)c1ccccc1 (mixture of isomers) | 0.207 µM |  |  | 0.28
27 | CC(C)Nc1cc(-c2[nH]c([S+]([O-])C(C)C)nc2-c2ccc(F)cc2)ccn1 (racemic) | 0.003 µM | 4.92 | 0.25 µM | 5
28 | C[S@+]([O-])c1nc(-c2ccnc(NC3CCOCC3)c2)c(-c2ccc(F)cc2)[nH]1 | 0.034 µM |  | 0.83 µM | 
29 | CC(C)Nc1cc(-c2[nH]c([S@+]([O-])C(C)C)nc2-c2ccc(F)cc2)ccn1 |  | 4.24 |  | 9.25
30 | C[C@H](Nc1cc(-c2[nH]c([S@@+](C)[O-])nc2-c2ccc(F)cc2)ccn1)c1ccccc1 | 0.025 µM | 0.16 | 10 µM | 1.12
31 | C[S@+]([O-])c1nc(-c2ccc(F)cc2)c(-c2ccnc(NC3CCOCC3)c2)[nH]1 |  | 2.05 |  | 1.38
32 | CSc1nc(-c2ccnc(NC3CCOCC3)c2)c(-c2ccc(F)cc2)[nH]1 |  |  | 0.18 µM | 
33 | C[S@@+]([O-])c1nc(-c2ccc(F)cc2)c(-c2ccnc(NC3CCOCC3)c2)[nH]1 |  | 2.15 |  | 4.45
34 | CC(C)Sc1nc(-c2ccc(F)cc2)c(-c2ccnc(NC3CCCCC3)c2)[nH]1 |  | 2.86 |  | 4.17
35 | C[S@+]([O-])c1nc(-c2ccnc(NC3CCCCC3)c2)c(-c2ccc(F)cc2)[nH]1 | 0.05 µM |  | 0.59 µM | 
36 | CSc1nc(-c2ccc(F)cc2)c(-c2ccnc(N[C@@H](C)C(C)C)c2)[nH]1 | 0.026 µM | 31.2 | 0.05 µM | 1.81
37 | CC(C)[S+]([O-])c1nc(-c2ccc(F)cc2)c(-c2ccnc(NC3CCCCC3)c2)[nH]1 (racemic) | 0.018 µM | 1.72 | 1.08 µM | 2.17

The next lines start with the values.

Row | IC50 [1] | Ratio IC50 [2] | IC50 [3] | Ratio IC50 [4] | SMILES
38 | 0.141 µM |  | 7.53 µM |  | C[S@+]([O-])c1nc(-c2ccnc(NC(=O)Cc3ccc(F)cc3)c2)c(-c2ccc(F)cc2)[nH]1
39 |  | 0.23 |  | 0.55 | C[S@+]([O-])c1nc(-c2ccc(F)cc2)c(-c2ccnc(NC(=O)Cc3ccc(F)cc3)c2)[nH]1
40 | 0.002 µM | 2.62 | 0.47 µM | 7.5 | CC(C)Nc1cc(-c2[nH]c([S+](C)[O-])nc2-c2ccc(F)cc2)ccn1 (racemic)
41 | 1.27 µM |  |  | 0.028 | CC(=O)Nc1cc(-c2c(-c3ccc(F)cc3)nc([S@+](C)[O-])n2C)ccn1
42 | 0.019 µM |  | 0.2 µM |  | CC(C)[C@H](C)Nc1cc(-c2nc([S@@+](C)[O-])[nH]c2-c2ccc(F)cc2)ccn1
43 | 0.161 µM |  |  |  | CC(=O)Nc1cc(-c2nc([S@@+](C)[O-])[nH]c2-c2ccc(F)cc2)ccn1
44 |  | 2.07 |  | 1.44 | CC(C)[C@@H](C)Nc1cc(-c2[nH]c([S@+](C)[O-])nc2-c2ccc(F)cc2)ccn1
45 | 0.403 µM |  |  | 0.1 | CC(=O)Nc1cc(-c2[nH]c([S+](C)[O-])nc2-c2ccc(F)cc2)ccn1 (racemic)
46 | 0.197 µM |  |  | 0.45 | CC(=O)Nc1cc(-c2[nH]c([S@+](C)[O-])nc2-c2ccc(F)cc2)ccn1
47 | 0.017 µM | 10.4 | 0.15 µM | 3.41 | CC(C)[C@H](C)Nc1cc(-c2[nH]c([S+](C)[O-])nc2-c2ccc(F)cc2)ccn1 (mixture of isomers)
48 | 0.027 µM | 6.8 | 0.25 µM | 2.15 | CC(C)[C@H](C)Nc1cc(-c2[nH]c([S@+](C)[O-])nc2-c2ccc(F)cc2)ccn1
49 | 0.069 µM | 0.31 | 5.55 µM | 1.16 | C[S+]([O-])c1nc(-c2ccc(F)cc2)c(-c2ccnc(NC(=O)Cc3ccc(F)cc3)c2)[nH]1 (racemic)
50 |  | 3.62 |  | 5.08 | CC(C)Nc1cc(-c2[nH]c([S@@+](C)[O-])nc2-c2ccc(F)cc2)ccn1
51 | 0.031 µM | 1.72 | 0.9 µM | 2.32 | CC(C)[C@@H](C)Nc1cc(-c2[nH]c([S@@+](C)[O-])nc2-c2ccc(F)cc2)ccn1
52 | 1.03 µM |  |  | 0.035 | CC(=O)Nc1cc(-c2c(-c3ccc(F)cc3)nc([S@@+](C)[O-])n2C)ccn1
53 | 0.012 µM |  | 0.53 µM |  | CC(C)Nc1cc(-c2nc([S@@+](C)[O-])[nH]c2-c2ccc(F)cc2)ccn1
54 |  |  |  | 0.55 | CC(=O)Nc1cc(-c2[nH]c([S@@+](C)[O-])nc2-c2ccc(F)cc2)ccn1
55 | 0.036 µM |  | 0.75 µM |  | CC(C)[C@@H](C)Nc1cc(-c2nc([S@+](C)[O-])[nH]c2-c2ccc(F)cc2)ccn1
56 |  | 8.5 |  | 3.05 | CC(C)[C@H](C)Nc1cc(-c2[nH]c([S@@+](C)[O-])nc2-c2ccc(F)cc2)ccn1
57 | 0.077 µM | 0.27 | 6.41 µM | 1 | C[S@@+]([O-])c1nc(-c2ccc(F)cc2)c(-c2ccnc(NC(=O)Cc3ccc(F)cc3)c2)[nH]1
58 | 0.037 µM |  |  | 2.11 | CSc1nc(-c2ccc(F)cc2)c(-c2ccnc(NC(C)=O)c2)[nH]1
59 | 0.061 µM | 0.92 | 1.34 µM | 1.18 | CC(C)[C@@H](C)Nc1cc(-c2[nH]c([S+](C)[O-])nc2-c2ccc(F)cc2)ccn1 (mixture of isomers)
60 | 1.07 µM |  |  | 0.042 | CC(=O)Nc1cc(-c2c(-c3ccc(F)cc3)nc([S+](C)[O-])n2C)ccn1 (racemic)
61 | 0.2 µM |  |  | 0.42 | C[C@@H](Nc1cc(-c2[nH]c([S@+](C)[O-])nc2-c2ccc(F)cc2)ccn1)c1ccccc1
62 | 0.024 µM | 2.29 | 0.84 µM | 2.54 | CC(C)Nc1cc(-c2[nH]c([S@+](C)[O-])nc2-c2ccc(F)cc2)ccn1
63 |  |  |  | 0.49 | C[C@@H](Nc1cc(-c2[nH]c([S@@+](C)[O-])nc2-c2ccc(F)cc2)ccn1)c1ccccc1
